Patent US9273092B2, “Selective binding compounds” (RIOGIN Corporation, priority 2011, dated 2016)

Molecular target: hSA (Homo sapiens, UniProt P02768)
Test: hSA binding assay (hSA-coated microtiter plate, streptavidin-polyHRP/ABTS, OD 405 nm)
Settings: for Bmax: given only for compounds with an Exp 2 value
Procedure: hSA binding assay. Microtiter 96 well plate is coated, overnight at 4° C., using […] of a solution of hSA in PBS ([…]). Plate is washed with PBS and blocked, for 1 hours, using 150 ml, per well, of a 10% solution of Tween 20 in water. After 1 hour the wells are washed with PBS. The hSA binders tested are dissolved in PBS, 100 ml of the tested solutions are then added in the well and incubated for 2 hours. After 2 hours, the solution are discarded and the wells are washed using PBS, 0.1% Tween 20. 100 ml of a solution of streptavidin-polyHRP in PBS 1.375% casein is added to the wells and incubated for 1 more hours. Finally wells are washed with PBS, 0.1% Tween 20, and 100 ml ABTS in phosphate-citrate buffer with sodium perborate is added. After a few minutes OD are read at 405 nm.
A plurality of compounds according to the invention were prepared. All of the compounds contained the Cys-Pro-Cys moiety. These compounds and an assay control were tested using the above procedure. Some compounds were tested twice (Exp 1 and Exp 2).

Sequence of hSA (P02768 25-609): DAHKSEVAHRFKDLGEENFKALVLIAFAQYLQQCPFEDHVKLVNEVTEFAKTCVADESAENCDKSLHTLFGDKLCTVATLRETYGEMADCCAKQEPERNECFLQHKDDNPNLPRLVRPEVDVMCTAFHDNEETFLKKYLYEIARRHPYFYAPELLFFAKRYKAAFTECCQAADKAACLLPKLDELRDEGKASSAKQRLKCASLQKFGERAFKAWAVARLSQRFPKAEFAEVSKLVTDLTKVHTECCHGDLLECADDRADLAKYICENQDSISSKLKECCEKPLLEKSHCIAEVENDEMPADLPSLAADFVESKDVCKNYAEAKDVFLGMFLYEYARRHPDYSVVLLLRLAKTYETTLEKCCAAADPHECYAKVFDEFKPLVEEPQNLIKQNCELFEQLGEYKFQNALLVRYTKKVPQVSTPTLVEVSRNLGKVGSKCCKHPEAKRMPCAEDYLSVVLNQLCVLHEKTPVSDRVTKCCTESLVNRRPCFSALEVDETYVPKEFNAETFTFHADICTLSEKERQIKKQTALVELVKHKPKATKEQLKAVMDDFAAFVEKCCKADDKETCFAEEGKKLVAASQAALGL

| Binding, Exp 1 | Binding, Exp 2 | Bmax | Sequence |
| --- | --- | --- | --- |
| 0.7026 | – | – | RLIEEICPCLW [Compound 57, RLIEEI-LW, "-" represents cysteine-proline-cysteine] |
| 0.05331 | – | – | RLIENICPCLW [Compound 14, RLIENI-LW, "-" represents cysteine-proline-cysteine] |
| 1.238 | – | – | RLIESICPCLW [Compound 61, RLIESI-LW, "-" represents cysteine-proline-cysteine] |
| 0.1503 | – | – | RLIEVICPCLW [Compound 37, RLIEVI-LW, "-" represents cysteine-proline-cysteine] |
| 0.1404 | – | – | RLIKDICPCLW [Compound 36, RLIKDI-LW, "-" represents cysteine-proline-cysteine] |
| 0.06261 | – | – | RLIQDICPCLW [Compound 18, RLIQDI-LW, "-" represents cysteine-proline-cysteine] |
| – | 0.1909 | 0.8584 | RLIQICPCLW [Compound 97, RLIQI-LW, "-" represents cysteine-proline-cysteine] |
| – | 0.2247 | 1.301 | RLISDICPCLW [Compound 98, RLISDI-LW, "-" represents cysteine-proline-cysteine] |
| 0.04895 | 0.2036 | 1.002 | RLIVDICPCLW [Compound 12, RLIVDI-LW, "-" represents cysteine-proline-cysteine] |
| 0.03902 | – | – | RLTEDICPCLW [Compound 7, RLTEDI-LW, "-" represents cysteine-proline-cysteine] |
| 0.06407 | – | – | RLVEDICPCLW [Compound 20, RLVEDI-LW, "-" represents cysteine-proline-cysteine] |
| 0.02306 | 0.2243 | 1.232 | RQIEDICPCLW [Compound 2, RQIEDI-LW, "-" represents cysteine-proline-cysteine] |
| – | 0.1598 | 0.6151 | RTIEDICPCLW [Compound 99, RTIEDI-LW, "-" represents cysteine-proline-cysteine] |
| 0.06391 | 0.2112 | 1.089 | RVIEDICPCLW [Compound 19, RVIEDI-LW, "-" represents cysteine-proline-cysteine] |
